Non-standard residues stand in square brackets, D forms with d. Hyp = O=C(O)[C@@H]1C[C@@H](O)CN1

In the first data set the test system is endothelial cell line EA.hy 926. The data set can be described thus: MTT test (cell metabolic activity / cytotoxicity). To be noted: EA.h 926 cells incubated with peptide for 1 day and for 7 days; concentration range 10 μM to 10 mM; compared with Control− (medium only); five replicates, average. The class given is cell-based. Here is the method:
The endothelial cell line EA.hy 926 (ATCC, Manassas, VA, USA) was used. The MTT test was performed using endothelial cells of the EA.hy 926 line. The extracts (2 mg/mL) were incubated in DMEM (Corning) for 48 h at 37 °C. Cells were seeded into a 96-well plate with 1 × 10^4 cells per well and grown under standard conditions (37 °C, 5% CO2 in humid air). The next day, the medium was replaced with extracts. After 24 h of treatment, the culture medium was removed and replaced with the MTT solution (1 mg/mL, Sigma Aldrich, Poznan, Poland) and incubated for 2 h in an incubator. The MTT solution was then decanted and 100 µL of isopropanol (Sigma Aldrich, Poznan, Poland) was added to each well. Absorbance was measured at 570 nm and 650 nm for the reference using a microplate reader (Victor X4 Perkin Elmer, PerkinElmer, Inc. Waltham, MA, USA). Cells cultured for 48 h in DMEM were used as a negative control. As a positive control were used cells incubated for 24 h, followed by the addition of DMSO, which were then cultured for another 24 h. Three samples of each type were tested and the results were presented as a percentage of the negative control with the standard deviation. Statistical significance was assessed using one-way ANOVA analysis of variance. Values for which the value **p < 0.001, ** p < 0.01, *p < 0.05 were considered statistically significant.
All the peptides were also assessed in terms of their cytotoxicity against the endothelial cell line EA.h 926. No cytotoxicity was observed (Figure 6) both for incubating cells in the presence of peptides 1–5 for 1 day (Figure 6a) and for 7 days (Figure 6b). Cells cultured in medium without the addition of any substances or harmful agents were used as the Control^− (K^−), while cells treated with DMSO on the second day of incubation were used as the Control^+ (K^+). The dimethyl sulfoxide (DMSO) was added to a final concentration of 5%. An MTT test was used to assess the cytotoxicity of peptides 1–5. […] The tests were performed in the concentration range of 10 μM and 10 mM.
Figure 6 Results of cell metabolic activity by using 3-(4,5-dimethylthiazol-2-yl)-2,5-diphenyltetrazolium bromide (MTT test) of the endothelial cell line EA.h 926 cultured in the presence of peptides 1–5, panel (a)—cells incubated in the presence of peptides for 1 day, panel (b)—cells incubated in the presence of peptides for 7 days. Cytotoxicity tests were performed in five replicates. The presented results are average values. Statistical significance was assessed using one-way ANOVA analysis of variance. Values for which the value **p < 0.001, ** p < 0.01, *p < 0.05 were considered statistically significant (see Supplementary Materials, Figure S1).
In the final stage of the research, we studied the effects of covalently linked conjugates of peptides 2‒5 with chitosan and alginate (Figure 10) on the endothelial cell line EA.hy 926. Experiments were performed for incubation of cells for 1 day (Figure 10a) and 7 days (Figure 10b) to check the effect of alginate and chitosan conjugates with peptides 2‒5 both in the short and long term, which is important from the point of view of the usefulness of materials used in regenerative medicine. As the Control^‒ (K^‒) were again used cells cultured in the medium without the addition of any substances or any harmful factors, while as the Control^+ (K^+) were used cell cultures killed by adding DMSO on the second day of incubation. DMSO was added to give a 5% final concentration in the culture medium. Unmodified chitosan and calcium alginate were also studied. […] Cell viability relative to the […] was reduced by more than 75%. The adverse effect of calcium alginate on the endothelial cell line EA.hy 926 may result from the exchange of Ca^2+ ions from the polysaccharide matrix for monovalent Na^+ and/or K^+ ions, causing the release of large amounts of Ca^2+ ions into the culture medium. This in turn may adversely affect the endothelial cells. […]
Take H-(Hyp)6-OH [Peptide 4]: the “cytotoxic effect of peptides (MTT test)” value is given as “No cytotoxic effect”.
Take H-(Hyp)9-OH [Peptide 5]: the “cytotoxic effect of peptides (MTT test)” value was “No cytotoxic effect”.
Consider H-(Pro)6-OH [Peptide 2], for which the “cytotoxic effect of peptides (MTT test)” value is on record as “No cytotoxic effect”.
The same measure, in the same setting: to H-(Pro)9-OH [Peptide 3] belongs “No cytotoxic effect”; to “H-G[Hyp]PA[Hyp]P-OH (SMILES C[C@H](NC(=O)[C@@H]1CCCN1C(=O)[C@@H]1C[C@@H](O)CN1C(=O)CN)C(=O)N1C[C@H](O)C[C@H]1C(=O)N1CCC[C@H]1C(=O)O) [Peptide 1, model collagen fragment, reference compound]”, “No cytotoxic effect”.

The same data set, now with this note: EA.h 926 cells; 10 mM peptide.
Consider H-(Pro)9-OH [Peptide 3], for which the “cytotoxicity at the highest tested concentration (MTT)” value is on record as “comparable toxicity to that at 100 μM”.

(Values after publication PMC7412561, “Conjugates of Chitosan and Calcium Alginate with Oligoproline and Oligohydroxyproline Derivatives for Potential Use in Regenerative Medicine” (Materials, 2020).)
